Results reported in the supplement of paper PMC4862054.

What was measured:
CAL-51 [1] = details: 72 h
Protocol: (§1)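 Drug sensitivity and resistance testing (DSRT) of breast cancer cell lines in 384-well plates, 5 concentrations in 10-fold dilutions over a compound-specific 10,000-fold range. After 72 h, cytotoxicity was read by CellTox Green fluorescence and viability by CellTiter-Glo luminescence (multiplexed), normalised to DMSO and benzethonium chloride controls. EC50 is the inflection point of the fitted dose-response curve (bottom asymptote free, so it can be relative for partial curves) and is censored at the highest tested concentration. Rows with DSS 0 (no meaningful response) were excluded.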

BT-474 = test: normalised response (% of control), CellTiter-Glo; higher = more viable cells (100 = DMSO, 0 = benzethonium chloride kill control); details: incubation time: 72 h
Outline: (§2)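 Breast cancer cell lines were exposed for 72 h in 384-well plates to compound at 5 concentrations, 10-fold apart, covering a 10,000-fold range fixed for each compound. Plates were read for CellTox Green fluorescence and CellTiter-Glo luminescence and normalised to 0.1 % DMSO (100) and a positive kill control (0). Each value is the normalised signal at one concentration of the series.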

BT-549 = test: as above; details: incubation time: 72 h
Outline: as §2

CAL-120 = test: as above; details: incubation time: 72 h
Outline: as §2

CAL-148 = test: as above; details: incubation time: 72 h
Outline: as §2

CAL-51 [2] = test: as above; details: incubation time: 72 h
Outline: as §2

CAL-85-1 = test: as above; details: incubation time: 72 h
Outline: as §2

DU-4475 = test: as above; details: incubation time: 72 h
Outline: as §2

HCC1143 = test: as above; details: incubation time: 72 h
Outline: as §2

HCC1599 = test: as above; details: incubation time: 72 h
Outline: as §2

HCC1937 = test: as above; details: incubation time: 72 h
Outline: as §2

HDQ-P1 = test: as above; details: incubation time: 72 h
Outline: as §2

Hs578T = test: as above; details: incubation time: 72 h
Outline: as §2

MCF-10A = test: as above; details: incubation time: 72 h
Outline: as §2

MDA-MB-231 [3] = test: as above; details: incubation time: 72 h
Outline: as §2

MDA-MB-436 = test: as above; details: incubation time: 72 h
Outline: as §2

MDA-MB-453 = test: as above; details: incubation time: 72 h
Outline: as §2

MDA-MB-468 = test: as above; details: incubation time: 72 h
Outline: as §2

MFM-223 = test: as above; details: incubation time: 72 h
Outline: as §2

SK-BR-3 = test: as above; details: incubation time: 72 h
Outline: as §2

MDA-MB-231 [4] = details: 72 h
Protocol: as §1

SMILES	EC50, CellTox Green (CAL-51 [1]) [µM]	normalised response (BT-474) [%]	normalised response (BT-549) [%]	normalised response (CAL-120) [%]	normalised response (CAL-148) [%]	normalised response (CAL-51 [2]) [%]	normalised response (CAL-85-1) [%]	normalised response (DU-4475) [%]	normalised response (HCC1143) [%]	normalised response (HCC1599) [%]	normalised response (HCC1937) [%]	normalised response (HDQ-P1) [%]	normalised response (Hs578T) [%]	normalised response (MCF-10A) [%]	normalised response (MDA-MB-231 [3]) [%]	normalised response (MDA-MB-436) [%]	normalised response (MDA-MB-453) [%]	normalised response (MDA-MB-468) [%]	normalised response (MFM-223) [%]	normalised response (SK-BR-3) [%]	EC50, CellTox Green (MDA-MB-231 [4]) [µM]
COc1cccc2c1C(=O)c1c(O)c3c(c(O)c1C2=O)C[C@@](O)(C(C)=O)C[C@@H]3O[C@H]1C[C@H](N)[C@H](O)[C@H](C)O1 [Daunorubicin]	0.183																				
CN1CCN(c2ccc3nc(-c4c(N)c5c(F)cccc5[nH]c4=O)[nH]c3c2)CC1 [Dovitinib] (10000 nM)		91.5	95.6	89.4	88.1	127	95.9	99.9	90.1	102	88	89.8	95.8	100	94	87.6	96.4	78.1	77.6	91.5	
O=c1[nH]c(=O)n([C@H]2C[C@H](O)[C@@H](CO)O2)cc1F [Floxuridine]	0.734																				
O=c1[nH]c(=O)n([C@H]2C[C@H](O)[C@@H](CO)O2)cc1F [Floxuridine] (10000 nM)		59	80.1	33.5	95.7	29.4	23.6	70.7	77.6	58.1	42	82.8	23	84.7	67.9	57.3	97.6	60.7	103	44.8	
O=c1[nH]cc(F)c(=O)[nH]1 [Fluorouracil] (10000 nM)		92.7	91.7	95.5	88.6	85.3	57.5	99.5	76	93.8	72.8	91.8	93.7	88.4	82.2	75.8	94.8	77.4	105	74.8	
C[C@@H]1C=C2C(=O)O[C@@H]3CC[C@H](C1)[C@]23O [Galiellalactone] (50000 nM)		108	44.3	105	124	71.1	72.2	102	100	90.3	107	93.9	101	106	106	89.5	105	39.1	105	107	
COC1=C2C[C@@H](C)C[C@H](OC)[C@H](O)[C@@H](C)/C=C(\C)[C@H](OC(N)=O)[C@@H](OC)/C=C\C=C(/C)C(=O)NC(=CC1=O)C2=O [Geldanamycin] (10000 nM)		8.17	19.2	26.7	33.4	6.33	10.5	0.14	24.1	45	24.2	19	16.8	10.7	3.82	24.4	29.5	7.56	20.3	30.7	
CS(=O)(=O)CCNCc1ccc(-c2ccc3ncnc(Nc4ccc(OCc5cccc(F)c5)c(Cl)c4)c3c2)o1 [Lapatinib] (1000 nM)		96.8	105	105	96.3	120	73.5	106	95.4	97.1	101	69.5	101	43.5	105	103	80.5	83.6	99.5	28.5	
Cn1cnc2c(F)c(Nc3ccc(Br)cc3F)c(C(=O)NOCCO)cc21 [MEK-162] (1000 nM)		73.9	92.7	86.6	95.9	76.4	78.8	1.31	86.5	100	86	71.5	90	38.9	74.8	94	97.9	88.3	96.2	94.5	
CCOc1cc2ncc(C#N)c(Nc3ccc(OCc4ccccn4)c(Cl)c3)c2cc1NC(=O)/C=C/CN(C)C [Neratinib] (1000 nM)		79.1	56.1	68.4	68.8	45	42.6	95.3	72.7	95.5	66.1	46.3	72.3	25.4	74.2	56.3	63.7	36.4	62.8	16.2	
COc1ccc(C2=N[C@@H](c3ccc(Cl)cc3)[C@@H](c3ccc(Cl)cc3)N2C(=O)N2CCNC(=O)C2)c(OC(C)C)c1 [Nutlin-3] (10000 nM)		93.3	87	100	71.4	50.7	97.3	72.7	92.9	98.5	97.6	97.1	102	89.2	91.9	102	68.7	78.9	93.3	99.1	
COC1=CC(c2cc3ccccc3[nH]2)=N/C1=C\c1[nH]c(C)cc1C [Obatoclax] (10000 nM)		70.5	29.3	92.5	76.5	7.62	76.3	84	92	88.2	67.7	91.1	74.7	95.8	66.9	81.6	57.5	79.3	71.2	64.3	
COC(=O)C[C@](O)(CCCC(C)(C)O)C(=O)O[C@@H]1C(OC)=C[C@]23CCCN2CCc2cc4c(cc2[C@H]13)OCO4 [Omacetaxine]																					0.62
CC(=O)O[C@H]1C(=O)[C@@]2(C)[C@H]([C@H](OC(=O)c3ccccc3)[C@]3(O)C[C@H](OC(=O)[C@H](O)[C@@H](NC(=O)c4ccccc4)c4ccccc4)C(C)=C1C3(C)C)[C@]1(OC(C)=O)CO[C@@H]1C[C@@H]2O [Paclitaxel] (1000 nM)		29.5	12.1	48.9	44.1	26.2	20.4	34.8	31.2	33.6	64.7	61.2	9.73	32.3	25.3	27	51.5	23.9	38.8	11.2	
CC(C)(C)c1cc(NC(=O)Nc2ccc(-c3cn4c(n3)sc3cc(OCCN5CCOCC5)ccc34)cc2)no1 [Quizartinib] (1000 nM)		101	91.7	112	108	125	106	105	108	88.6	104	103	92.6	109	113	109	97	114	105	103	
O=C(c1ccc(OCCN2CCCCC2)cc1)c1c(-c2ccc(O)cc2)sc2cc(O)ccc12 [Raloxifene] (10000 nM)		62.3	70.7	82.2	99.4	104	76.7	90.1	101	49.1	79.1	86.8	96.9	107	68.5	71.8	66.1	46.1	62.5	82.7	
Cn1c(=O)c(F)c(Nc2ccc(I)cc2F)c2c(=O)n(C[C@@H](O)CO)cnc21 [TAK-733]																					0.0546
Cn1c(=O)c(F)c(Nc2ccc(I)cc2F)c2c(=O)n(C[C@@H](O)CO)cnc21 [TAK-733] (1000 nM)		57.4	84	64.2	98.9	78.2	43.1	0.81	76.7	82	68.3	55.3	70.2	35.5	56.4	76.8	97.7	73.6	70.2	105	
CCS(=O)(=O)c1cccc(-c2cc(C(=O)NC3CCN(C)CC3)c(C)c3[nH]c4ncc(C)cc4c23)c1 [TAK-901]																					0.184
CCS(=O)(=O)c1cccc(-c2cc(C(=O)NC3CCN(C)CC3)c(C)c3[nH]c4ncc(C)cc4c23)c1 [TAK-901] (1000 nM)		31.6	28.7	52.8	92.8	49.8	73.4	84.9	44.4	82.3	64.5	39.4	75.2	25.4	23	57	104	36.4	45.9	80.4	
Cc1cc(C(C)Nc2ccccc2)c2nc(N3CCOCC3)cc(=O)n2c1 (stereo unspecified) [TGX-221]																					> 10
